Results taken from patent publication US20090029856A1, “Hinokitiol As A Plant Pesticide” (priority 2007, published 2009).
≈ marks a conversion by molar mass, not a printed value. Where “and” joins values, the source holds several entries; their conditions need not be identical. Equal entries are not always repeated.

Legend:
[1] = system: Verticillium dahliae; assay: Spiral gradient dilution method, inhibition of mycelial growth; assay type: cell-based; details: PDA, 20° C., hinokitiol in acetone
Description: (§1) In this method, a potato dextrose agar (PDA) medium is plated with the test solution by means of a spiral plater, which applies the compound in a 2.5-log dilution in a continuous radial concentration gradient. Fungal inoculum in two replicates is then placed along radial lines across the gradient. […] EC50 values were calculated based on these measurements. The fungi evaluated were members of the following families Anamorphic Phyllachoraceae (Colletotrichum acutatum), Anamorphic Sclerotiniaceae (Botrytis cinerea), Mitosporic fungi (Verticillium dahlias; Microphomina sp.), and Oomycota (Phytophtora capsici). Hinokitiol (5 mg/mL) was dissolved in acetone, and acetone alone was also used as a control to check for non-specific inhibition.

[2] = system: Phytophtora capsici; assay: as above; assay type: cell-based; details: PDA, 20° C., hinokitiol in acetone
Description: as §1

[3] = system: Colletotrichum acutatum; assay: as above; assay type: cell-based; details: PDA, 20° C., hinokitiol in acetone
Description: as §1

[4] = system: Microphomina sp.; assay: as above; assay type: cell-based; details: PDA, 20° C., hinokitiol in acetone
Description: as §1

[5] = system: Phoma; assay: Hinokitiol spiral PDA plates, growth after 2 days; assay type: cell-based; details: 2 days of incubation
Description: as §1
(§2) Another set of hinokitiol spiral PDA plates prepared as above were inoculated with plant pathogenic fungi from the genera Mucor, Rhizoctonia, Geotrichum, Phoma, and Penicillium.

[6] = system: Rhizoctonia; assay: Hinokitiol spiral PDA plates, growth after 2 days; assay type: cell-based; details: 2 days of incubation
Description: as §1, §2

[7] = system: Penicillium; assay: Hinokitiol spiral PDA plates, growth after 2 days; assay type: cell-based; details: 2 days of incubation
Description: as §1, §2

[8] = system: Geotrichum; assay: Hinokitiol spiral PDA plates, growth after 2 days; assay type: cell-based; details: 2 days of incubation
Description: as §1, §2

[9] = system: Mucor; assay: Hinokitiol spiral PDA plates, growth after 2 days; assay type: cell-based; details: 2 days of incubation
Description: as §1, §2

[10] = system: Botrytis cinerea; assay: Spiral gradient dilution method, inhibition of mycelial growth and spore germination; assay type: cell-based
Description: as §1

[11] = system: grey mold (Botrytis cinerea); assay: In vivo greenhouse test on green bell pepper (Capsicum annuum) against grey mold; details: for Average (mean) disease rating, 2 days / Average (mean) disease rating, 3 days / Average (mean) disease rating, 7 days: mean of 3 replicates; for rating at day 3 / rating at day 7 / rating at day 2: single replicates
Description: To further test the inhibitory effect of hinokitiol on grey mold (Botrytis cinerea), an in vivo test on green bell pepper (Capsicum annuum) was conducted in a greenhouse. Pepper plants at a 6-true-leaf growth stage were sprayed with hinokitiol in 50% ethanol. The stock solution (5 mg/mL) was prepared in 97% ethanol, and diluted to following concentrations: 0, 0.01, 0.1 mg/mL. To compare the efficacy of hinokitiol in an alcohol-free solution, a treatment with 0.1 mg/mL of hinokitiol in water was included in this study. Pepper plants with no treatment were used as controls. All treatments were carried out in 3 replicates. After treatment with hinokitiol, the leaf surfaces were allowed to dry under the growth lights, after which the plants were inoculated with a B. cinerea spore solution containing 2×10^6 spores per mL. Inoculated plants were incubated in the dark in a covered flat at 22° C. […] Symptoms were rated on a scale of 0-5; 0 indicating no lesions on leaves, and 5 indicating severe rotting/dead plant.

[12] = system: Monilinia fructicola (MON); assay: Spiral plating method, growth inhibition; assay type: cell-based; details: M. fructicola; average distance of inhibition / 28 mm × 100
Description: (§3) The spiral plating method was used to deposit the fungicides on PDA and TSA plates with exponential logarithmic decrease of product concentration from the centre to the edge of the plate. The plates were left standing for four hours and inoculated with the fungus and bacteria. There were four repetitions of the same microorganism done per plate and there was one replica of each plate.
(§4) The plates were cultured for 3 days before measurements of growth were taken. The ‘distance of inhibition’ indicates the length of the zone with no growth, measured from center edge of the agar, the ‘colony width ratio’ indicates the ratio of the width of growth measured at the zero concentration and width at the highest concentration with growth.

[13] = system: Botrytis cinerea (BOT); assay: Spiral plating method, growth inhibition; assay type: cell-based; details: B. cinerea
Description: as §3, §4

[14] = system: Erwinia carotovora (ERWC); assay: Spiral plating method, growth inhibition; assay type: cell-based; details: E. carotovora; average distance of inhibition / 28 mm × 100
Description: as §3, §4

[15] = system: Pseudomonas viridilivida (PSVI); assay: Spiral plating method, growth inhibition; assay type: cell-based; details: P. viridilivida
Description: as §3, §4

[16] = system: Xanthomonas campestris (X-CAM); assay: Spiral plating method, growth inhibition; assay type: cell-based; details: average distance of inhibition / 28 mm × 100
Description: as §3, §4

[17] = system: Fusarium sp (FUSM); assay: Spiral plating method, growth inhibition; assay type: cell-based; details: average distance of inhibition / 28 mm × 100
Description: as §3, §4

[18] = 0.01 mg/mL in 50% ethanol, scale 0-5
[19] = 0.1 mg/mL in 50% ethanol, scale 0-5

Q: Which EC50 [1] does the source give for `CC(C)c1cccc(=O)c(O)c1` [Hinokitiol, 4-isopropyl tropolone] here?
A: Its EC50 is 11 µg/mL (≈ 67 µM).

Q: What about the EC50 [2] of the same molecule?
A: Its EC50 is 12 µg/mL (≈ 73.1 µM).

Q: What about the EC50 [3] of the same molecule?
A: The EC50 was 12 µg/mL (≈ 73.1 µM).

Q: And the EC50 [4]?
A: The EC50 was 11 µg/mL (≈ 67 µM).

Q: And the inhibition of growth [5]?
A: Its inhibition of growth is “complete inhibition”.

Q: What about the inhibition of growth [6] of the same molecule?
A: The inhibition of growth was “complete inhibition”.

Q: And the inhibition of growth [7]?
A: Its inhibition of growth is “complete inhibition”.

Q: What about the inhibition of growth [8] of the same molecule?
A: The inhibition of growth was “complete inhibition”.

Q: And the inhibition of growth [9]?
A: Its inhibition of growth is “complete inhibition”.

Q: And the “inhibition in spore germination” value ([10]; B. cinerea, hinokitiol at concentrations 5-0.05 mg/mL, light microscope)?
A: Its value is 100%.

Q: What about the EC50 ([10]; Botrytis cinerea, PDA, 20° C., hinokitiol in acetone) of the same molecule?
A: Its EC50 is 31 µg/mL (≈ 189 µM).

Q: And the “Average (mean) disease rating, 2 days” value ([11]; 0.01 mg/mL EtOH, scale 0-5)?
A: Its value is 1.7 a.

Q: And the “Average (mean) disease rating, 3 days” value ([11]; 0.01 mg/mL EtOH, scale 0-5)?
A: Its value is 2.7 ab.

Q: And the “Average (mean) disease rating, 7 days” value ([11]; 0.01 mg/mL EtOH, scale 0-5)?
A: The value was 3.0 ab.

Q: And the “rating at day 3” value [11, 18]?
A: The value was 4 and 3 and 1.

Q: What about the “rating at day 7” value [11, 18] of the same molecule?
A: The value was 5 and 3 and 1.

Q: And the “rating at day 2” value ([11]; 0.01 mg/mL in 50% ethanol, scale 0-5 (0 no lesions, 5 severe rotting/dead plant))?
A: The value was 2 (2×) and 1.

Q: What about the “Average (mean) disease rating, 2 days” value ([11]; 0.1 mg/mL EtOH, scale 0-5) of the same molecule?
A: Its value is 1.7 a.

Q: And the “Average (mean) disease rating, 3 days” value ([11]; 0.1 mg/mL EtOH, scale 0-5)?
A: The value was 2.7 ab.

Q: And the “Average (mean) disease rating, 7 days” value ([11]; 0.1 mg/mL EtOH, scale 0-5)?
A: Its value is 4.0 ab.

Q: And the “Average (mean) disease rating, 2 days” value ([11]; 0.1 mg/mL H2O, scale 0-5)?
A: Its value is 0.3 b.

Q: And the “Average (mean) disease rating, 3 days” value ([11]; 0.1 mg/mL H2O, scale 0-5)?
A: Its value is 0.7 b.

Q: What about the “Average (mean) disease rating, 7 days” value ([11]; 0.1 mg/mL H2O, scale 0-5) of the same molecule?
A: The value was 2.3 b.

Q: And the “rating at day 2” value [11, 19]?
A: Its value is 2 (2×) and 1.

Q: And the “rating at day 3” value [11, 19]?
A: The value was 3 (2×) and 2.

Q: And the “rating at day 7” value [11, 19]?
A: The value was 5 (2×) and 2.

Q: What about the “rating at day 2” value ([11]; 0.1 mg/mL in water, scale 0-5) of the same molecule?
A: The value was 0 (2×) and 1.

Q: What about the “rating at day 3” value ([11]; 0.1 mg/mL in water, scale 0-5) of the same molecule?
A: Its value is 0 and 1 (2×).

Q: And the “rating at day 7” value ([11]; 0.1 mg/mL in water, scale 0-5)?
A: The value was 1 and 2 and 4.

Q: What about the “incidence of B. cinerea compared with untreated control pepper plants” value ([11]; 0.1 mg/mL water) of the same molecule?
A: The value was “significantly lower”.

Q: And the “disease outbreak and final disease incidence compared with untreated control” value ([11]; dissolved in ethanol at 0.01 and 0.1 mg/mL)?
A: Its value is “postponed the disease outbreak but the final disease incidence was not significantly different from the untreated control”.

Q: And the “% inhibition of growth” value [12]?
A: Its value is 48%.

Q: And the inhibition of growth [13]?
A: The inhibition of growth was “did not inhibit”.

Q: What about the “% inhibition of growth” value [14] of the same molecule?
A: Its value is 62%.

Q: What about the inhibition of growth [15] of the same molecule?
A: The inhibition of growth was “did not inhibit”.

Q: And the “% inhibition of growth” value [16]?
A: The value was 83%.

Q: And the “% inhibition of growth” value [17]?
A: The value was 32%.
